pIC50: −log10 of the molar value.
How the values were obtained:
[1] = molecular target: T1, Human recombinant PTP1B (hPTP1B) (Homo sapiens, UniProt P18031); assay type: biochemical
T1 construct: made in house
T1 sequence (P18031 1-435): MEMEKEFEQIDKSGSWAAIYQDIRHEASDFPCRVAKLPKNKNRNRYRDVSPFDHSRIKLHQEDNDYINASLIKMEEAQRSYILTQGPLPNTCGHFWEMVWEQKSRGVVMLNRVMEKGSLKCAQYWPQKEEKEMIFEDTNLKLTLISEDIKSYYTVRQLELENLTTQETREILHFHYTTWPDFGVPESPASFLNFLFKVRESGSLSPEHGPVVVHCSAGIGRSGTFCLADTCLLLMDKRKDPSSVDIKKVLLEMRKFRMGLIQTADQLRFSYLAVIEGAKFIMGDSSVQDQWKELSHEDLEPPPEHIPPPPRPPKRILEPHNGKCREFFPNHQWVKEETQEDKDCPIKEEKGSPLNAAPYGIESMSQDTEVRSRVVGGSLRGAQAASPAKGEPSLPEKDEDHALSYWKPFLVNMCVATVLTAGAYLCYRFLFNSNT

diabetic (ob/ob) mice = assay: Blood glucose lowering in diabetic (ob/ob) mice; assay type: in vivo, mouse; settings: for % Change Glucose from Vehicle: plasma glucose
Source text: The procedures used and results obtained are briefly described below.
The non-insulin dependent diabetic (NIDDM) syndrome can be typically characterizes by obesity, hyperglycemia, abnormal insulin secretion, hyperinsulinemia and insulin resistance.
In each test procedure, mice [Male or female ob/ob (C57 B1/6J) and their lean litermates (ob/+ or +/+, Jackson Laboratories) ages 2 to 5 months (10 to 65 g)] of a similar age were randomized according to body weight into 4 groups of 10 mice. The mice were housed 5 per cage and are maintained on normal rodent chow with water ad libitum. Mice received test compound daily by gavage (suspended in 0.5 ml of 0.5% methyl cellulose); dissolved in the drinking water; or admixed in the diet. The dose of compounds given ranges from 2.5 to 200 mg/kg body weight/day. The dose is calculated based on the fed weekly body weight and is expressed as active moiety. […] Control mice received vehicle only.
On the morning of Day 4, 7 or 14 two drops of blood (approximetly 50 ul) were collected into sodium fluoride containing tubes either from the tail vein or after decapitation. For those studies in which the compound was administered daily by gavage the blood samples were collected 0 and 4 hours after compound administration. The plasma was isolated by centrifugation and the concentration of glucose is measured enzymatically on an Abbott V. P. Analyzer.
For each mouse, the percentage change in plasma glucose on Day 4, 7 or 14 is calculated relative to the mean plasma glucose of the vehicle treated mice. Analysis of variance followed by Dunett's Comparison Test (one-tailed) are used to estimate the significant difference between the plasma glucose values from the control group and the individual compound treated groups (CMS SAS Release 5.18).

[2] = system: rat hepatic microsomal PTPases; settings: 50 μM compound
[3] = dose 25 mg/Kg, (a) = no significant activity (p < 0.05) at this dose
[4] = dose 10 mg/Kg, (a) = no significant activity (p < 0.05) at this dose

melting point	pIC50 [1]	% Change from Control [2]	Structure (SMILES)	% Change Glucose from Vehicle (diabetic (ob/ob) mice; [3])	also measured
198 to 200 °C	–	–	COc1c(N)cc(-c2c3ccccc3c(Br)c3sc(C)c(C)c23)cc1Br [Example 58, 3-Bromo-5-(9-bromo-2,3-dimethyl-naphtho[2,3-b]thiophen-4-yl)-2-methoxy-phenylamine]	–	–
> 190 °C (dec.)	5.82	–	COc1c(Br)cc(-c2c3ccccc3c(Br)c3sc(C)c(C)c23)cc1NCC(=O)O [Example 60, [3-Bromo-5-(9-bromo-2,3-dimethyl-naphtho[2,3-b]thiophen-4-yl)-2-methoxy-phenylamino]-acetic Acid]	–	–
–	6.56	−58.85%	Cc1c(CN2CCOCC2)sc2c(Br)c3ccccc3c(-c3cc(Br)c(OC(Cc4ccccc4)C(=O)O)c(Br)c3)c12 (centres unmarked) [Example 35, 2-[2,6-Dibromo-4-(9-bromo-3-methyl-2-morpholin-4-ylmethyl-naphtho[2,3-b]thiophen-4-yl)-phenoxy]-3-phenyl-propionic acid]	−25.58 ^ %	% Change Insulin from Vehicle (diabetic (ob/ob) mice; [3]): −2.98 (a) %
183 to 185 °C	–	2.13%	Cc1sc2c(Br)c3ccccc3c(-c3ccc(O)c([N+](=O)[O-])c3)c2c1C [Example 20, 4-(9-Bromo-2,3-dimethyl-naphtho[2,3-b]thiophen-4-yl)-2-nitro-phenol]	–	–
–	6.96	−83.88%	Cc1sc2c(Br)c3ccccc3c(-c3cc(Br)c(O[C@H](Cc4ccccc4)C(=O)O)c(C(C)C)c3)c2c1C [Example 40, (R)-2-[2-Bromo-4-(9-bromo-2,3-dimethyl-naphtho[2,3-b]thiophen-4-yl)-6-isopropyl-phenoxy]-3-phenyl-propionic acid]	–	% Change Insulin from Vehicle (diabetic (ob/ob) mice; dose 100 mg/Kg): −90.80 ^ %; % Change Glucose from Vehicle (diabetic (ob/ob) mice; dose 100 mg/Kg): −28.20 ^ %
237 to 239 °C	–	–	Cc1sc2c(Sc3ccccc3)c3ccccc3c(-c3cc(Br)c(O)c(Br)c3)c2c1C [Example 13, 2,6-Dibromo-4-(2,3-dimethyl-9-phenylsulfanyl-naphtho[2,3-b]thiophen-4-yl)-phenol]	–	–
–	7.22	−89.41%	Cc1sc2c(Br)c3ccccc3c(-c3cc(Br)c(O[C@H](CCc4ccccc4)C(=O)O)c(Br)c3)c2c1C [Example 32, (R)-2-[2,6-Dibromo-4-(9-bromo-2,3-dimethyl-naphtho[2,3-b]thiophen-4-yl)-phenoxy]-4-phenyl-butyric acid]	−15.68 (a) %	% Change Insulin from Vehicle (diabetic (ob/ob) mice; [3]): −48.35 ^ %
157 to 162 °C	5.76	–	Cc1sc2c(Br)c3ccccc3c(-c3cc(Br)c(O)c(C(C)C)c3)c2c1C [Example 39, 2-Bromo-4-(9-bromo-2,3-dimethyl-naphtho[2,3-b]thiophen-4-yl)-6-isopropyl-phenol]	–	–
–	6.79	–	CCc1cc(-c2c3ccccc3c(Br)c3sc(C)c(C)c23)cc(CC)c1O[C@H](Cc1ccccc1)C(=O)O [Example 61, (R)-2-[4-(9-Bromo-2-,3-dimethyl-naphtho[2,3-b]thiophen-4-yl)-2,6-diethyl-phenoxy]-3-phenyl-propionic acid]	–	% Change Glucose from Vehicle (diabetic (ob/ob) mice; dose 10 mg/Kg, measured at 0 hour): −32.8 (c) %
212 to 213 °C	–	–	Cc1sc2c(I)c3ccccc3c(-c3ccc(OS(C)(=O)=O)cc3)c2c1C [Example 11, Methanesulfonic acid 4-(9-iodo-2,3-dimethyl-naphtho[2,3-b]thiophen-4-yl)-phenyl ester]	–	–
–	6.77	−78.84%	CCc1cc(-c2c3ccccc3c(Br)c3sc(C)c(C)c23)cc(Br)c1O[C@H](Cc1ccccc1)C(=O)O [Example 43, (R)-2-[2-Bromo-4-(9-bromo-2,3-dimethyl-naphtho[2,3-b]thiophen-4-yl)-6-ethyl-phenoxy]-3-phenyl-propionic acid]	−45.2 ^ %	–
190 to 191 °C	–	–	CC(=O)Oc1ccc(-c2c3ccccc3c(Br)c3sc(C)c(C)c23)cc1 [Example 7, Acetic Acid 4-(9-bromo-2,3-dimethyl-naphtho[2,3-b]thiophen-4-yl)-phenyl ester]	–	–
–	–	–	CC1(COc2ccc(CC3SC(=O)NC3=O)cc2)CCCCC1 (centres unmarked) [Ciglitazone, 5-(4-(1-methylcyclohexylmethoxy)benzyl)-2,4-dione, reference compound]	–	% Change Insulin from Vehicle (diabetic (ob/ob) mice; dose 100 mg/Kg): −39 ^ %; % Change Glucose from Vehicle (diabetic (ob/ob) mice; dose 100 mg/Kg): −43 ^ %
205 to 207 °C	6.31	–	Cc1sc2c(Br)c3ccccc3c(-c3cc(Br)c(O)c(NC(=O)OC(C)(C)C)c3)c2c1C [Example 56, [3-Bromo-5-(9-bromo-2,3-dimethyl-naphtho[2,3-b]thiophen-4-yl)-2-hydroxy-phenyl]-carbamic Acid tert-Butyl Ester]	–	–
174 to 175 °C	–	–	COC(=O)[C@@H](Cc1ccccc1)Oc1c(Br)cc(-c2c3ccccc3c(Br)c3sc(C)c(C)c23)cc1Br [Example 28, (R)-2-[2,6-Dibromo-4-(9-bromo-2,3-dimethyl-naphtho[2,3-b]thiophen4-yl)-phenoxy]3-phenyl-propionic acid methyl ester]	–	–
–	7.05	−63.41%	CCC(C)c1cc(-c2c3ccccc3c(Br)c3sc(C)c(C)c23)cc(Br)c1O[C@H](Cc1ccccc1)C(=O)O (stereo partly drawn) [Example 42, (R)-2-[2-Bromo-4-(9-bromo-2,3-dimethyl-naphtho[2,3-b]thiophen-4-yl)-6-sec-butyl-phenoxy]-3-phenyl-propionic acid]	−32.5 ^ %	–
–	7.54	−61.92%	Cc1sc2c(Sc3ccccc3)c3ccccc3c(-c3cc(Br)c(O[C@H](Cc4ccccc4)C(=O)O)c(Br)c3)c2c1C [Example 33, (R)-2-[2,6-dibromo-4-(2,3-dimethyl-9-phenylsulfanyl-naphtho[2,3-b]thiophen-4-yl)-phenoxy]-3-phenyl-propionic acid]	−21.10 (a) %	% Change Insulin from Vehicle (diabetic (ob/ob) mice; [3]): −39.3 ^ %
165 to 168 °C	–	–	Cc1sc2c(Br)c3ccccc3c(-c3ccc(O)cc3)c2c1C [Example 8, 4-(9-Bromo-2,3-dimethyl-naphtho[2,3-b]thiophen-4-yl)-phenol]	–	–
194 to 198 °C	5.66	–	COC(=O)CNc1cc(-c2c3ccccc3c(Br)c3sc(C)c(C)c23)cc(Br)c1OC [Example 59, [3-Bromo-5-(9-bromo-2,3-dimethyl-naphtho[2,3-b]thiophen-4-yl)-2-methoxy-phenylamino]-acetic Acid Methyl Ester]	–	–
–	–	−89.36%	Cc1cc(-c2c3ccccc3c(Br)c3sc(C)c(C)c23)cc(C)c1O[C@H](Cc1ccccc1)C(=O)O [Example 49, (R)-2-[4-(9-Bromo-2,3-dimethyl-naphtho[2,3-b]thiophen-4-yl)-2,6-dimethyl-phenoxy]-3-phenyl-propionic acid]	–	% Change Glucose from Vehicle (diabetic (ob/ob) mice; [4]): −35.1 ^ %
147 to 150 °C	–	–	CC(=O)Oc1ccc(-c2c3ccccc3cc3sc(C)c(C)c23)cc1 [Example 6, Acetic Acid 4-(2,3-dimethyl-naphtho[2,3-b]thiophen-4-yl)-phenyl ester]	–	–
–	6.94	−83.54%	Cc1sc2c(Br)c3ccccc3c(-c3cc(Br)c(O[C@H](Cc4ccccc4)C(=O)O)c(Br)c3)c2c1C [Example 29, (R)-2-[2,6-Dibromo-4-(9-bromo-2,3-dimethyl-naphtho[2,3-b]thiophen-4-yl)-phenoxy]3-phenyl-propionic acid]	−38.18 ^ %	% Change Insulin from Vehicle (diabetic (ob/ob) mice; dose 10 mg/Kg): −48.11 ^ %; % Change Insulin from Vehicle (diabetic (ob/ob) mice; [3]): −80.50 ^ %; % Change Insulin from Vehicle (diabetic (ob/ob) mice; dose 100 mg/Kg): −89.59 ^ %; % Change Glucose from Vehicle (diabetic (ob/ob) mice; [4]): −18.6 (a) %; % Change Glucose from Vehicle (diabetic (ob/ob) mice; dose 100 mg/Kg): −48.63 ^ %
–	6.63	−68.50%	Cc1sc2c(Br)c3ccccc3c(-c3ccc(O[C@H](Cc4ccccc4)C(=O)O)c(C(C)C)c3)c2c1C [Example 44, (R)-2-[4-(9-Bromo-2,3-dimethyl-naphtho[2,3-b]thiophen-4-yl)-6-isopropyl-phenoxy]-3-phenyl-propionic acid]	−17.2 ^ %	–

Reference: patent publication US6444670B2 (Wyeth, priority 1998, dated 2002)
